Patent US7928140B2, “Benzothiazole PI3 kinase modulators for cancer treatment” (Amgen Inc., priority 2007, dated 2011)

Experiments:
PI3K β = biological target: T1, PI3K β (Homo sapiens, UniProt P42338); experiment: In vitro PI3 kinase enzyme assay (beta), ATP loss, bioluminescence; type: biochemical; conditions: read-out: PI3Kβ ATP loss IC50;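 note: purified p110β/p85 heterodimer with PtdIns(4,5)P2 as acceptor, incubated at room temperature, leftover ATP read by luminescence, inhibition scaled to compound-free wells with and without enzyme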
T1 construct: Full length p110 subunits of PI3K α, β and δ, N-terminally labeled with polyHis tag; polyHis (N); made in house; host or cells: Sf9 insect cells (baculovirus)
T1 sequence (P42338 whole entry): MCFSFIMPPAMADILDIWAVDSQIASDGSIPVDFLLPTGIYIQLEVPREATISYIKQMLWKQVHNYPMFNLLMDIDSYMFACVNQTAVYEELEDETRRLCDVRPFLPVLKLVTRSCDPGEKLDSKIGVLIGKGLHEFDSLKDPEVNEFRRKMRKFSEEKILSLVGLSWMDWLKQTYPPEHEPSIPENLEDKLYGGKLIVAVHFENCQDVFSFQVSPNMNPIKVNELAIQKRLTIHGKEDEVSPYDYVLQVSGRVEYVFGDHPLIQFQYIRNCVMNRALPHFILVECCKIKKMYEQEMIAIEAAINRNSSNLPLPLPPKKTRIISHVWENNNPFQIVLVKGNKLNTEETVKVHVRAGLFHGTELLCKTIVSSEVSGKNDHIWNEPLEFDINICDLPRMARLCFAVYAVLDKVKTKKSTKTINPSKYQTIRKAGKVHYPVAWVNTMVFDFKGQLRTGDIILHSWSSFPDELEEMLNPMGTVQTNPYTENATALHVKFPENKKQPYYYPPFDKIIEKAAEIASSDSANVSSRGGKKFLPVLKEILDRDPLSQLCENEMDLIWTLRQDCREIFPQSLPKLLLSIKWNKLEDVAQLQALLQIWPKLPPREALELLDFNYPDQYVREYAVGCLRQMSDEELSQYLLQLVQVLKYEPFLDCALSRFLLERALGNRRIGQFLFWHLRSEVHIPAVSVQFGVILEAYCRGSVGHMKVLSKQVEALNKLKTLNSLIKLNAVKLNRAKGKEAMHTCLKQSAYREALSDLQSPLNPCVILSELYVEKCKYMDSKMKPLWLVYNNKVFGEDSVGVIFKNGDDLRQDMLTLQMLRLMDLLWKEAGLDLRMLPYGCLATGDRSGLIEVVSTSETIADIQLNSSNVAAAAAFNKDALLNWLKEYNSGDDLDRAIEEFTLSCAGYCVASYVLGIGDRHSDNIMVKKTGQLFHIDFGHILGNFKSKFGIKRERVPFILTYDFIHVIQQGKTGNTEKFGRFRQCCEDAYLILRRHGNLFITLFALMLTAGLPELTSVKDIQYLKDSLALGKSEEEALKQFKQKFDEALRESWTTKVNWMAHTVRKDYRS
T1 sequence (P27986 whole entry partner): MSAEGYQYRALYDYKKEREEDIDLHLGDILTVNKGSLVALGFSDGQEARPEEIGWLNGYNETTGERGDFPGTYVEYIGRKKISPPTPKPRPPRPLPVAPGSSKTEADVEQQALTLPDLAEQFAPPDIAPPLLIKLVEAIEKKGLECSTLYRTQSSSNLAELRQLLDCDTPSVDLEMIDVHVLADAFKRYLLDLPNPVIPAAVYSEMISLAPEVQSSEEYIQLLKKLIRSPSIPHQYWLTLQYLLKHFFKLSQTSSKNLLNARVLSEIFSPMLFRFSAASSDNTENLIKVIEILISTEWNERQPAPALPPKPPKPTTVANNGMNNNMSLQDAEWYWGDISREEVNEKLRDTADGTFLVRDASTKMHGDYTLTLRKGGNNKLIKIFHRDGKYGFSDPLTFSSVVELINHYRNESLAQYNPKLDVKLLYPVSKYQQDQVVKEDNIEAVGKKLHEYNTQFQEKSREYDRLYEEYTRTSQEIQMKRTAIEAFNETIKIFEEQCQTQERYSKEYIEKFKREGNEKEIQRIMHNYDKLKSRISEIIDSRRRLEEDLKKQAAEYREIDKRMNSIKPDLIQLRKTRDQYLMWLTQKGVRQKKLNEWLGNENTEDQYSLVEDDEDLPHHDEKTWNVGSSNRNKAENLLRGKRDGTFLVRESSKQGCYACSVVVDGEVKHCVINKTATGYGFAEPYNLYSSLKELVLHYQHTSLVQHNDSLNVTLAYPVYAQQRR

PI3K α = biological target: T2, PI3K α (Homo sapiens, UniProt P42336); experiment: In vitro PI3 kinase enzyme assay (alpha), ATP loss, bioluminescence; type: biochemical; conditions: read-out: PI3Kα ATP loss IC50;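 note: purified p110α/p85 heterodimer acting on PtdIns(4,5)P2 at room temperature, remaining ATP read by luminescence, inhibition scaled between compound-free wells with and without enzyme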
T2 construct: Full length p110 subunits of PI3K α, β and δ, N-terminally labeled with polyHis tag; polyHis (N); made in house; host or cells: Sf9 insect cells (baculovirus)
T2 sequence (P42336 whole entry, species assumed): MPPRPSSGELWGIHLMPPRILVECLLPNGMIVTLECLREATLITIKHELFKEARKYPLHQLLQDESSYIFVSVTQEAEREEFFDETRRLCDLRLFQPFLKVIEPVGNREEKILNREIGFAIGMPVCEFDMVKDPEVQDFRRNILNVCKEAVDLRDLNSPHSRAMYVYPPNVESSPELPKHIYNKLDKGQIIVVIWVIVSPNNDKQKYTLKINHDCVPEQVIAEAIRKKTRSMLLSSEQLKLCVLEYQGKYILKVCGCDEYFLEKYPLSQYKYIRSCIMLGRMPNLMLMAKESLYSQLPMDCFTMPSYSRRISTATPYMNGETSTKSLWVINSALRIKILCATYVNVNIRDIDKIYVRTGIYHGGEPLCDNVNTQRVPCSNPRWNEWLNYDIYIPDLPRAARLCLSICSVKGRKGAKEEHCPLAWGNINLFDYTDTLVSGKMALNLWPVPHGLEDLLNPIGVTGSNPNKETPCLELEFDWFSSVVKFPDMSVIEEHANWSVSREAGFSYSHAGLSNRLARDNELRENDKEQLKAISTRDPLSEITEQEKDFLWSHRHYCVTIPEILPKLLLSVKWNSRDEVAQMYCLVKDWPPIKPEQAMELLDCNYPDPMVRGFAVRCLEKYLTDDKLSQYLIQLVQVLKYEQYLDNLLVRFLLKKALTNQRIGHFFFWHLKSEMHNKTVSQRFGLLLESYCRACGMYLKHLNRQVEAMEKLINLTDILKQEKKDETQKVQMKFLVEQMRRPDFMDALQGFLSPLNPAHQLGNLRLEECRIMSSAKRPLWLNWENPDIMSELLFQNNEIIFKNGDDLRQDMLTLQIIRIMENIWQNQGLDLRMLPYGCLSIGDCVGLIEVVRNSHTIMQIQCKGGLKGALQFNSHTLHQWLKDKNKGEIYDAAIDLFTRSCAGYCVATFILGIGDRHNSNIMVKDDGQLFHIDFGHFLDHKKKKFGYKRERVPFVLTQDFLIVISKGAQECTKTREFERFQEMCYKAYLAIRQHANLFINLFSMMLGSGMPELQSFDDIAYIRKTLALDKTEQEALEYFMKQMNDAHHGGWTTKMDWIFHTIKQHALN
T2 sequence (P27986 whole entry partner, species assumed): as the sequence (P27986 whole entry partner) above

SMILES	IC50 (PI3K β) [nM]	IC50 (PI3K α) [nM]
Nc1nc2ccc(-c3cccc(NS(=O)(=O)c4ccccc4F)n3)cc2s1 [Example 72, N-(6-(2-amino-1,3-benzothiazol-6-yl)-2-pyridinyl)-2-fluorobenzenesulfonamide]	1600	2270
CC(=O)Nc1nc2ccc(-c3ccnc(NS(=O)(=O)c4cccnc4)n3)cc2s1 [Example 79, N-(6-(2-(pyridine-5-sulfonamido)pyrimidin-4-yl)benzo[d]thiazol-2-yl)acetamide]	849	60.6
CC(=O)Nc1ccc(S(=O)(=O)Nc2nccc(-c3ccc4nc(NC(C)=O)sc4c3)n2)cc1 [Example 86, N-(4-((4-(2-(acetylamino)-1,3-benzothiazol-6-yl)-2-pyrimidinyl)sulfamoyl)phenyl)acetamide]	10200	319
COc1ccc(S(=O)(=O)Nc2nccc(-c3ccc4nc(NC(C)=O)sc4c3)n2)cc1OC [Example 87, N-(6-(2-(((3,4-dimethoxyphenyl)sulfonyl)amino)-4-pyrimidinyl)-1,3-benzothiazol-2-yl)acetamide]	7190	153
COc1ccc(-c2cccc3nc(NC(C)=O)sc23)cc1F [Example 94]	24800	998
COc1ccc(-c2cccc3nc(NC(C)=O)sc23)cc1 [Example 95, N-(7-(4-Methoxyphenyl)benzo[d]thiazol-2-yl)acetamide]	> 40000	6540
COc1cccc(-c2cccc3nc(NC(C)=O)sc23)c1 [Example 96, N-(7-(3-methoxyphenyl)-1,3-benzothiazol-2-yl)acetamide]	> 40000	1680
CC(=O)Nc1nc2ccc(-c3csc(S(=O)(=O)c4ccc(F)cc4)n3)cc2s1 [Example 97, N-(6-(2-(4-Fluorophenylsulfonyl)thiazol-4-yl)benzo[d]thiazol-2-yl)acetamide]	28000	17300
CC(=O)Nc1nc2ccc(-c3cccc4sc(=O)[nH]c34)cc2s1 [Example 98, N-(6-(2-oxo-2,3-Dihydrobenzo[d]thiazol-4-yl)benzo[d]thiazol-2-yl)acetamide]	10000	3140
CC(=O)Nc1nc2ccc(-c3cccc4[nH]ncc34)cc2s1 [Example 99, N-(6-(1H-Indazol-4-yl)benzo[d]thiazol-2-yl)acetamide]	> 40000	288
CC(=O)Nc1nc2ccc(-c3cc(C)nc(N)n3)cc2s1 [Example 101, N-(6-(2-Amino-6-methylpyrimidin-4-yl)benzo[d]thiazol-2-yl)acetamide]	9990	4190
CC(=O)Nc1nc2ccc(-c3ccnc(OCCCO)n3)cc2s1 [Example 102, N-(6-(2-(3-hydroxypropoxy)-4-pyrimidinyl)-1,3-benzothiazol-2-yl)acetamide]	> 40000	664
CC(=O)Nc1nc2ccc(-c3ccnc(OCCCCO)n3)cc2s1 [Example 103, N-(6-(2-(4-hydroxybutoxy)-4-pyrimidinyl)-1,3-benzothiazol-2-yl)acetamide]	> 40000	727
CC(=O)Nc1nc2ccc(-c3ccnc(OCCO)n3)cc2s1 [Example 104, N-(6-(2-(2-hydroxyethoxy)-4-pyrimidinyl)-1,3-benzothiazol-2-yl)acetamide]	> 40000	540
CC(=O)Nc1nc2ccc(-c3ccnc(Sc4ccc(C)cc4C)n3)cc2s1 [Example 122, N-(6-(2-((2,4-dimethylphenyl)sulfanyl)-4-pyrimidinyl)-1,3-benzothiazol-2-yl)acetamide]	260	19.6
CC(=O)Nc1nc2ccc(-c3ccnc(Sc4cc(C)ccc4C)n3)cc2s1 [Example 123, N-(6-(2-((2,5-dimethylphenyl)sulfanyl)-4-pyrimidinyl)-1,3-benzothiazol-2-yl)acetamide]	537	23.5
CC(=O)Nc1nc2ccc(-c3ccnc(Sc4ccc(C)c(C)c4)n3)cc2s1 [Example 128, N-(6-(2-((3,4-dimethylphenyl)sulfanyl)-4-pyrimidinyl)-1,3-benzothiazol-2-yl)acetamide]	522	33.9
CC(=O)Nc1nc2ccc(-c3ccnc(Sc4ccc(Cl)cc4)n3)cc2s1 [Example 138, N-(6-(2-((4-chlorophenyl)sulfanyl)-4-pyrimidinyl)-1,3-benzothiazol-2-yl)acetamide]	2880	69.9
CC(=O)Nc1nc2ccc(-c3ccnc(Sc4ccc(Br)cc4)n3)cc2s1 [Example 139, N-(6-(2-((4-bromophenyl)sulfanyl)-4-pyrimidinyl)-1,3-benzothiazol-2-yl)acetamide]	1050	80.7

SMILES	IC50 (PI3K β) [nM]	IC50 (PI3K α) [nM]
CC(=O)Nc1nc2ccc(-c3ccnc(Sc4cccc(Cl)c4)n3)cc2s1 [Example 140, N-(6-(2-((3-chlorophenyl)sulfanyl)-4-pyrimidinyl)-1,3-benzothiazol-2-yl)acetamide]	134	83.6
CC(=O)Nc1nc2ccc(-c3cnc(C)c(N)c3)cc2s1 [Example 142, N-(6-(5-amino-6-methyl-3-pyridinyl)-1,3-benzothiazol-2-yl)acetamide]	> 40000	111
CC(=O)Nc1nc2ccc(-c3ccnc(Sc4cc(C)cc(C)c4)n3)cc2s1 [Example 149, N-(6-(2-((3,5-dimethylphenyl)sulfanyl)-4-pyrimidinyl)-1,3-benzothiazol-2-yl)acetamide]	387	186
CNc1ncc(-c2ccc3nc(NC(C)=O)sc3c2)cc1N [Example 152, N-(6-(5-amino-6-(methylamino)pyridin-3-yl)benzo[d]thiazol-2-yl)acetamide]	864	275
CC(=O)Nc1nc2ccc(-c3cnc(OCCCN(C)C)c(NC(C)C)c3)cc2s1 [Example 153, N-(6-(6-(3-(dimethylamino)propoxy)-5-((1-methylethyl)amino)-3-pyridinyl)-1,3-benzothiazol-2-yl)acetamide]	1840	284
CC(=O)Nc1nc2ccc(-c3ccnc(Sc4ccccc4C(C)C)n3)cc2s1 [Example 154, N-(6-(2-((2-(1-methylethyl)phenyl)sulfanyl)-4-pyrimidinyl)-1,3-benzothiazol-2-yl)acetamide]	1210	376
CC(=O)Nc1nc2ccc(-c3cnc4c(c3)NC(C)(C)N4C)cc2s1 [Example 157, N-(6-(2,2,3-trimethyl-2,3-dihydro-1H-imidazo[4,5-b]pyridin-6-yl)benzo[d]thiazol-2-yl)acetamide]	> 40000	664
COc1ccc(OC)c(Sc2nccc(-c3ccc4nc(NC(C)=O)sc4c3)n2)c1 [Example 158, N-(6-(2-((2,5-dimethoxyphenyl)sulfanyl)-4-pyrimidinyl)-1,3-benzothiazol-2-yl)acetamide]	426	831
CC(=O)Nc1nc2ccc(-c3cnc(OCCN(C)C)c(NC(C)C)c3)cc2s1 [Example 159, N-(6-(6-(2-(dimethylamino)ethoxy)-5-(isopropylamino)pyridin-3-yl)benzo[d]thiazol-2-yl)acetamide]	3740	914
CC(=O)Nc1nc2ccc(-c3ccnc(N4CCOCC4)n3)cc2s1 [Example 160, N-(6-(2-(4-morpholinyl)-4-pyrimidinyl)-1,3-benzothiazol-2-yl)acetamide]	18900	2740
CC(=O)Nc1nc2ccc(-c3nnc(NS(=O)(=O)c4ccc(F)cc4)o3)cc2s1 [Example 164, N-(6-(5-(4-Fluorophenylsulfonamido)-1,3,4-oxadiazol-2-yl)benzo[d]thiazol-2-yl)acetamide]	322	17.8
Cc1ccc(S(=O)(=O)Nc2nnc(-c3ccc4nc(N)sc4c3)o2)cc1 [Example 165, N-(5-(2-Aminobenzo[d]thiazol-6-yl)-1,3,4-oxadiazol-2-yl)-4-methylbenzenesulfonamide]	170	196
CC(C)(C)OC(=O)Nc1nc2ccc(-c3nnc(NS(=O)(=O)c4ccc(F)cc4)o3)cc2s1 [Example 167, tert-Butyl 6-(5-(4-fluorophenylsulfonamido)-1,3,4-oxadiazol-2-yl)benzo[d]thiazol-2-ylcarbamate]	5800	663
Nc1nc2ccc(-c3nnc(NS(=O)(=O)c4ccc(F)cc4)o3)cc2s1 [Example 168, N-(5-(2-aminobenzo[d]thiazol-6-yl)-1,3,4-oxadiazol-2-yl)-4-fluorobenzenesulfonamide]	816	665
CC(C)(C)OC(=O)Nc1nc2ccc(-c3nnc(NCc4ccccc4)o3)cc2s1 [Example 169, tert-Butyl 6-(5-(benzylamino)-1,3,4-oxadiazol-2-yl)benzo[d]thiazol-2-ylcarbamate]	2690	4240
CC(C)(C)OC(=O)Nc1nc2ccc(-c3nnc(N(Cc4ccccc4)S(C)(=O)=O)o3)cc2s1 [Example 170, tert-Butyl 6-(5-(N-benzylmethan-9-ylsulfonamido)-1,3,4-oxadiazol-2-yl)benzo[d]thiazol-2-ylcarbamate]	4760	3910
CC(=O)Nc1nc2ccc(-c3ccnc(N(C)S(=O)(=O)c4ccc(F)cc4)n3)cc2s1 [Example 203, N-(6-(2-(4-fluoro-N-methylphenylsulfonamido)pyrimidin-4-yl)benzo[d]thiazol-2-yl)acetamide]	930	324
CC(=O)Nc1nc2ccc(-c3ccnc(N(C)S(=O)(=O)c4ccc5ncccc5c4)n3)cc2s1 [Example 204, N-(6-(2-(N-methylquinoline-6-sulfonamido)pyrimidin-4-yl)benzo[d]thiazol-2-yl)acetamide]	404	354
CC(=O)Nc1nc2ccc(-c3ccnc(N(C)S(=O)(=O)c4cccc5ccccc45)n3)cc2s1 [Example 207, N-(6-(2-(N-methylnaphthalene-1-sulfonamido)pyrimidin-4-yl)benzo[d]thiazol-2-yl)acetamide]	221	126
